Reference: patent US20260048047A1, “SMALL-MOLECULE ACTIVATORS OF MYCOBACTERIUM TUBERCULOSIS ADENYLYL CYCLASE” (priority 2022, published 2026)

Tested on: M. tuberculosis
Assay: Extracellular activity against M. tuberculosis in cholesterol media (Alamar Blue reduction assay)
Assay type: cell-based, Mycobacterium tuberculosis
Settings: Mycobacterium tuberculosis, 240 h, 7H12-Cholesterol media, 10 days; read-out: Cholesterol broth: alamar blue--EC50

Compound	EC50
Cn1cnnc1CC(=O)N1CCC(n2nnc(-c3ccc(F)cc3)n2)CC1 [Compound 156, 1-(4-(5-(4-fluorophenyl)-2H-tetrazol-2-yl)piperidin-1-yl)-2-(4-methyl-4H-1,2,4-triazol-3-yl)ethan-1-one]	> 10000 nM
Cn1ncnc1CC(=O)N1CCC(c2nc(C3CC4CCC3C4)no2)CC1 (centres unmarked) [Compound 157, 1-(4-(3-(bicyclo[2.2.1]heptan-2-yl)-1,2,4-oxadiazol-5-yl)piperidin-1-yl)-2-(1-methyl-1H-1,2,4-triazol-5-yl)ethan-1-one]	1860 nM
Cn1ncnc1CC(=O)N1CCC(c2nc([C@@H]3CC[C@@](C)(F)C3)no2)CC1 [Compound 158, 1-(4-(3-((1R,3R)-3-fluoro-3-methylcyclopentyl)-1,2,4-oxadiazol-5-yl)piperidin-1-yl)-2-(1-methyl-1H-1,2,4-triazol-5-yl)ethan-1-one]	> 10000 nM
Cn1ncnc1CC(=O)N1CCC(c2nc([C@@H]3CC[C@](C)(F)C3)no2)CC1 [Compound 159, 1-(4-(3-((1R,3S)-3-fluoro-3-methylcyclopentyl)-1,2,4-oxadiazol-5-yl)piperidin-1-yl)-2-(1-methyl-1H-1,2,4-triazol-5-yl)ethan-1-one]	> 10000 nM
Cn1ncnc1CC(=O)N1CCC(c2nc(C3CCC(C)(F)CC3)no2)CC1 (centres unmarked) [Compound 160, 1-(4-(3-(4-fluoro-4-methylcyclohexyl)-1,2,4-oxadiazol-5-yl)piperidin-1-yl)-2-(1-methyl-1H-1,2,4-triazol-5-yl)ethan-1-one]	> 10000 nM
Cn1ncnc1CC(=O)N1CCC(c2noc(C34CC(C)(C3)C4)n2)CC1 [Compound 161, 2-(1-methyl-1H-1,2,4-triazol-5-yl)-1-(4-(5-(3-methylbicyclo[1.1.1]pentan-1-yl)-1,2,4-oxadiazol-3-yl)piperidin-1-yl)ethan-1-one]	> 10000 nM
Cn1ncnc1CC(=O)N1CCC(c2nc(C34CC(C)(C3)C4)no2)CC1 [Compound 162, 2-(1-methyl-1H-1,2,4-triazol-5-yl)-1-(4-(3-(3-methylbicyclo[1.1.1]pentan-1-yl)-1,2,4-oxadiazol-5-yl)piperidin-1-yl)ethan-1-one]	> 10000 nM
Cn1ncnc1CC(=O)N1CCC(c2nc(-c3ccc(Cl)cc3Cl)no2)CC1 [Compound 163, 1-(4-(3-(2,4-dichlorophenyl)-1,2,4-oxadiazol-5-yl)piperidin-1-yl)-2-(1-methyl-1H-1,2,4-triazol-5-yl)ethan-1-one]	200 nM
Cn1ncnc1CC(=O)N1CCC(c2nc(-c3ccc(Cl)c(Cl)c3)no2)CC1 [Compound 164, 1-(4-(3-(3,4-dichlorophenyl)-1,2,4-oxadiazol-5-yl)piperidin-1-yl)-2-(1-methyl-1H-1,2,4-triazol-5-yl)ethan-1-one]	64.7 nM
Cn1ncnc1CC(=O)N1CCC(n2nnc(-c3ccc(Cl)c(Cl)c3)n2)CC1 [Compound 165, 1-(4-(5-(3,4-dichlorophenyl)-2H-tetrazol-2-yl)piperidin-1-yl)-2-(1-methyl-1H-1,2,4-triazol-5-yl)ethan-1-one]	100 nM
Cn1ncnc1CC(=O)N1CCC(c2noc(-c3ccc(Cl)c(Cl)c3)n2)CC1 [Compound 166, 1-(4-(5-(3,4-dichlorophenyl)-1,2,4-oxadiazol-3-yl)piperidin-1-yl)-2-(1-methyl-1H-1,2,4-triazol-5-yl)ethan-1-one]	710 nM
Cn1ncnc1CC(=O)N1CCC(c2nc(-c3ccc(Cl)cc3)no2)CC1 [Compound 167, 1-(4-(3-(4-chlorophenyl)-1,2,4-oxadiazol-5-yl)piperidin-1-yl)-2-(1-methyl-1H-1,2,4-triazol-5-yl)ethan-1-one]	221 nM
Cn1ncnc1CC(=O)N1CCC(n2nnc(-c3ccc(Cl)cc3)n2)CC1 [Compound 168, 1-(4-(5-(4-chlorophenyl)-2H-tetrazol-2-yl)piperidin-1-yl)-2-(1-methyl-1H-1,2,4-triazol-5-yl)ethan-1-one]	472 nM
Cn1ncnc1CC(=O)N1CCC(c2nc(-c3ccc(Cl)c(OC(F)(F)F)c3)no2)CC1 [Compound 169, 1-(4-(3-(4-chloro-3-(trifluoromethoxy)phenyl)-1,2,4-oxadiazol-5-yl)piperidin-1-yl)-2-(1-methyl-1H-1,2,4-triazol-5-yl)ethan-1-one]	330 nM
Cn1ncnc1CC(=O)N1CCC(c2nc(-c3ccc(OC(F)(F)F)cc3)no2)CC1 [Compound 170, 2-(1-methyl-1H-1,2,4-triazol-5-yl)-1-(4-(3-(4-(trifluoromethoxy)phenyl)-1,2,4-oxadiazol-5-yl)piperidin-1-yl)ethan-1-one]	130 nM
Cn1ncnc1CC(=O)N1CCC(n2nnc(-c3ccc(C(F)(F)F)cc3)n2)CC1 [Compound 171, 2-(1-methyl-1H-1,2,4-triazol-5-yl)-1-(4-(5-(4-(trifluoromethyl)phenyl)-2H-tetrazol-2-yl)piperidin-1-yl)ethan-1-one]	963 nM
Cn1ncnc1CC(=O)N1CCC(c2nc(-c3ccc(C(F)F)cc3)no2)CC1 [Compound 172, 1-(4-(3-(4-(difluoromethyl)phenyl)-1,2,4-oxadiazol-5-yl)piperidin-1-yl)-2-(1-methyl-1H-1,2,4-triazol-5-yl)ethan-1-one]	2070 nM
Cn1ncnc1CC(=O)N1CCC(c2noc(C34CC(F)(C3)C4)n2)CC1 [Compound 173, 1-(4-(5-(3-fluorobicyclo[1.1.1]pentan-1-yl)-1,2,4-oxadiazol-3-yl)piperidin-1-yl)-2-(1-methyl-1H-1,2,4-triazol-5-yl)ethan-1-one]	> 10000 nM

Compound	EC50
Cn1ncnc1CC(=O)N1CCC(c2nc(-c3ccc(CF)cc3)no2)CC1 [Compound 174, 1-(4-(3-(4-(fluoromethyl)phenyl)-1,2,4-oxadiazol-5-yl)piperidin-1-yl)-2-(1-methyl-1H-1,2,4-triazol-5-yl)ethan-1-one]	2260 nM
Cn1ncnc1CC(=O)N1CCC(c2nc(-c3ccc(S(F)(F)(F)(F)F)cc3)no2)CC1 [Compound 175, 2-(1-methyl-1H-1,2,4-triazol-5-yl)-1-(4-(3-(4-(pentafluoro-16-sulfaneyl)phenyl)-1,2,4-oxadiazol-5-yl)piperidin-1-yl)ethan-1-one]	1630 nM
Cn1ncnc1CC(=O)N1CCC(c2nc(-c3ccc(Cl)c(F)c3)no2)CC1 [Compound 176, 1-(4-(3-(4-chloro-3-fluorophenyl)-1,2,4-oxadiazol-5-yl)piperidin-1-yl)-2-(1-methyl-1H-1,2,4-triazol-5-yl)ethan-1-one]	115 nM
Cn1ncnc1CC(=O)N1CCC(n2nnc(-c3ccc(Cl)c(F)c3)n2)CC1 [Compound 177, 1-(4-(5-(4-chloro-3-fluorophenyl)-2H-tetrazol-2-yl)piperidin-1-yl)-2-(1-methyl-1H-1,2,4-triazol-5-yl)ethan-1-one]	170 nM
Cn1ncnc1CC(=O)N1CCC(c2nc(-c3ccc(Cl)cc3F)no2)CC1 [Compound 178, 1-(4-(3-(4-chloro-2-fluorophenyl)-1,2,4-oxadiazol-5-yl)piperidin-1-yl)-2-(1-methyl-1H-1,2,4-triazol-5-yl)ethan-1-one]	200 nM
Cn1ncnc1CC(=O)N1CCC(c2nc(-c3ccc(F)cc3Cl)no2)CC1 [Compound 179, 1-(4-(3-(2-chloro-4-fluorophenyl)-1,2,4-oxadiazol-5-yl)piperidin-1-yl)-2-(1-methyl-1H-1,2,4-triazol-5-yl)ethan-1-one]	1970 nM
Cn1ncnc1CC(=O)N1CCC(c2nc(-c3ccc(F)cc3F)no2)CC1 [Compound 180, 1-(4-(3-(2,4-difluorophenyl)-1,2,4-oxadiazol-5-yl)piperidin-1-yl)-2-(1-methyl-1H-1,2,4-triazol-5-yl)ethan-1-one]	480 nM
Cn1ncnc1CC(=O)N1CCC(c2nc(-c3ccc(F)c(C(F)(F)F)c3)no2)CC1 [Compound 181]	467 nM
Cn1ncnc1CC(=O)N1CCC(n2nnc(-c3ccc(F)c(Cl)c3)n2)CC1 [Compound 182, 1-(4-(5-(3-chloro-4-fluorophenyl)-2H-tetrazol-2-yl)piperidin-1-yl)-2-(1-methyl-1H-1,2,4-triazol-5-yl)ethan-1-one]	370 nM
Cn1ncnc1CC(=O)N1CCC(c2nc(-c3ccc(F)c(Cl)c3)no2)CC1 [Compound 183, 1-(4-(3-(3-chloro-4-fluorophenyl)-1,2,4-oxadiazol-5-yl)piperidin-1-yl)-2-(1-methyl-1H-1,2,4-triazol-5-yl)ethan-1-one]	210 nM
Cn1ncnc1CC(=O)N1CCC(c2nc(-c3ccc(F)c(F)c3)no2)CC1 [Compound 184, 1-(4-(3-(3,4-difluorophenyl)-1,2,4-oxadiazol-5-yl)piperidin-1-yl)-2-(1-methyl-1H-1,2,4-triazol-5-yl)ethan-1-one]	458 nM
Cn1ncnc1CC(=O)N1CCC(n2nnc(-c3ccc(F)c(F)c3)n2)CC1 [Compound 185, 1-(4-(5-(3,4-difluorophenyl)-2H-tetrazol-2-yl)piperidin-1-yl)-2-(1-methyl-1H-1,2,4-triazol-5-yl)ethan-1-one]	740 nM
Cn1ncnc1CC(=O)N1CCC(c2nc(-c3ccc(F)cc3)no2)CC1 [Compound 186, 1-(4-(3-(4-fluorophenyl)-1,2,4-oxadiazol-5-yl)piperidin-1-yl)-2-(1-methyl-1H-1,2,4-triazol-5-yl)ethan-1-one]	480 nM
Cn1ncnc1CC(=O)N1CCC(n2nnc(-c3ccc(F)cc3)n2)CC1 [Compound 187, 1-(4-(5-(4-fluorophenyl)-2H-tetrazol-2-yl)piperidin-1-yl)-2-(1-methyl-1H-1,2,4-triazol-5-yl)ethan-1-one]	3070 nM
Cn1nnnc1CC(=O)N1CCC(c2nc(-c3ccc(F)cc3)no2)CC1 [Compound 188, 1-(4-(3-(4-fluorophenyl)-1,2,4-oxadiazol-5-yl)piperidin-1-yl)-2-(1-methyl-1H-tetrazol-5-yl)ethan-1-one]	6330 nM
Cc1noc(CC(=O)N2CC3CC2CC3c2nc(C3CCCCC3)no2)n1 (centres unmarked) [Compound 189, 1-(5-(3-cyclohexyl-1,2,4-oxadiazol-5-yl)-2-azabicyclo[2.2.1]heptan-2-yl)-2-(3-methyl-1,2,4-oxadiazol-5-yl)ethan-1-one]	> 10000 nM
Cc1noc(CC(=O)N2CC3CC2CC3c2nc(-c3ccc(Cl)c(Cl)c3)no2)n1 (centres unmarked) [Compound 190, 1-(5-(3-(3,4-dichlorophenyl)-1,2,4-oxadiazol-5-yl)-2-azabicyclo[2.2.1]heptan-2-yl)-2-(3-methyl-1,2,4-oxadiazol-5-yl)ethan-1-one]	2900 nM
